From patent US20260357222A1, “GROWTH-BASED SELECTION PLATFORM FOR NONCANONICAL COFACTOR OXIDIZING ENZYMES” (The Regents of the University of California, priority 2022, published 2026)
Numbering of substitutions follows the chain as printed.

B1: Lactobacillus pentosus NADH oxidase (Lp Nox), wild type, SEQ ID NO:1 (Lactiplantibacillus pentosus) (protein)
chain: MKVIVIGCTHAGTAAVNQILASNPETDVTIYERNDNVSFLSCGIALYLGGEVADPQGLFYSSPEQLAKLGANVHMQHDVTDVDTENHEITVTDLKTGESKKDYYDKLVVTTGSWPVIPPIDGIDSPNVYLCKNWTHAQSLWEAAKPAKRVIVIGGGYIGTELVEAYQKQGKEVTLIDGLPRILNKYLDKGFTDRVEKDFVDHGIKMALNQMVKGFSDDGKEVTVKTDKGSYTADMAILCVGFRPNTSLLKGKVDMNPNGSIKTNDYMQTSDPDIYGAGDSVAVHYNPTKKDAYIPLATNAVRQGTLVGLNIFKPTRKYMGTQSTSGLMLFGKTIVSSGMTLEHAQAEKVPAEAVTFEDNYRPEFMPTTKPVLMQLVYNPETREILGAQFMSEHDVSQSANVISVMIQNHNTIDDLGFVDMFFQPIYDRPFNYLNLLGQAAIAHAAEKVTE

Columns and labels:
[1] = molecular target: T1, Lactobacillus pentosus NADH oxidase (Lp Nox), wild type, SEQ ID NO:1 (Lactiplantibacillus pentosus, UniProt A0A0U3FIG2); conditions: role: cofactor; oxidation of MNAH and BNAH by wild-type Lp Nox; cited from earlier work
T1 sequence (A0A0U3FIG2 1-450): B1 chain

[2] = molecular target: T2, Lactobacillus pentosus NADH oxidase (Lp Nox) variant LP-3 (I158S-D177W-G178E-V240L), SEQ ID NO:6 (Lactiplantibacillus pentosus, UniProt A0A0U3FIG2, D177W/G178E/I158S/V240L); assay: Lp Nox enzymatic kinetics, cofactor oxidation at 340 nm, variant LP-3; format: biochemical; conditions: role: cofactor, 50 mM Tris-HCl pH 7.0, 37 °C; for Km / kcat / kcat/Km: apparent, cofactor 0 to 2 mM
T2 construct: variant LP-3
T2 sequence (A0A0U3FIG2 1-450 I158S/D177W/G178E/V240L): B1 chain with I158S, D177W, G178E, V240L
Experimental: (§1) Protein Expression and Purification. Lp Nox wild type or variants (see Table 1) are expressed with E. coli BL21 (DE3) with plasmids inoculated in 2× YT media with 200 mg L^−1 ampicillin. Expression was carried out by inoculation of 20 mL 2× YT media supplied with antibiotics and an overnight culture incubated at 30 °C, 250 RPM with an OD600nm of 0.072. Cells were grown at 37 °C in 50 mL conical tubes, and the cultures were induced with 0.5 mM IPTG at an OD600nm of 0.6-1.0. The 20 mL culture was then incubated at 27 °C and 250 RPM for 24 h. After 24 h, cells were harvested for protein extraction (centrifugation at 4 °C, 3000 RPM, 20 min). Cell pellets were resuspended in Zymo His-Binding buffer (Zymo Research Corporation) supplied with 0.15 mM FAD, 1 μL/mL DNase (Sigma Aldrich) and 1 mM InSolution [COMPOUND LEFT OUT] (Sigma Aldrich). The resuspended cell mixture was added to 0.5 mL of 0.1 mm glass beads (Biospec) and homogenized using a benchtop homogenizer (MP Biomedicals). Cell debris was separated from the crude extract by centrifugation at 4 °C and 15,000 RPM for 5 min. Protein purification was performed using His-Spin Protein Miniprep (Zymo Research Corporation) according to the manufacturer's instructions. The concentrations of purified protein were quantified by a Bradford assay using BSA as a standard. Purified protein was stored in aliquots with 20% (v/v) glycerol at −80 °C.
(§2) NMNH generation. NMNH generation was performed in 20 mL reaction volumes in a 50 ml conical tube containing 200 mM Tris-Cl at pH 8.0, 100 mM sodium chloride, 3 mM potassium chloride, 200 mM glucose, and 20 m MNMN^+. The reaction was initiating by spiking 500 ng of purified Bacillus subtilis glucose dehydrogenase I195R8. The reaction was incubated at 30 °C until reaction progression stopped, approximately 6 h. Reaction progression was monitored by observing the increase in light absorption at 340 nm, corresponding to the reduction of NMN^+ to NMNH. Then, the solution was filtered through a 15 kD cutoff filter to remove the protein. To purify the NMNH, the flowthrough was mixed with HPLC-grade acetonitrile to a final concentration of 70% acetonitrile, and the solution was passed through a Phenomenex Strata NH2 (2 g/12 mL, 55 μm, 70 Å) solid phase extraction column. The column was washed twice with 4 mL of 70:30 acetonitrile:water, then twice with 4 mL of 50:50 acetonitrile:water, twice with 4 mL of 30:70 acetonitrile:water, twice with 4 mL of nanopurified water, and finally twice with 4 mL of methanol. To elute the NMNH from the column, 2 mL of a solution containing 50:50 ammonium hydroxide:methanol was added to the column and incubated for 3 minutes before eluting. The elution step was repeated until no NMNH remained in the flow through, as monitored by light absorption at 340 nm. The elution fractions containing NMNH were pooled and aliquoted in 1 mL volumes into clean tubes. The solutions were dried over air and stored at −80 °C until use.
(§3) Lp Nox Enzymatic Assays and Kinetic study with NMNH, NAD(P) H. The Lp Nox activity (see FIG. 4A) was determined by the change in light absorption at 340 nm at 37 °C in 50 mM Tris-Cl buffer pH 7.0. The reactions were started by adding the purified protein to the prewarmed 37 °C assay mixture containing 0.3 mM of respective cofactor. The absorbance change at 340 nm for NAD(P) H and NMNH was detected using a SpectraMax M3 microplate reader. For kinetics parameter determination (see Table 2), cofactor concentrations were varied from 0 to 2 mM and the results were fitted to the standard Michaelis-Menten equation or Lineweaver-Burk equation to acquire catalytic efficiencies (kcat/Km) when the cofactor concentration tested could not saturate the enzyme activity or during the presence of substrate inhibition. Cofactor concentration over 2 mM could not be measured accurately on M3 spectrometer due to detector absorbance saturation at 340 nm.

[3] = molecular target: T3, Lactobacillus pentosus NADH oxidase (Lp Nox) variant LP-7 (I158S-D177W-V240L), SEQ ID NO:3 (Lactiplantibacillus pentosus, UniProt A0A0U3FIG2, D177W/I158S/V240L); assay: Lp Nox enzymatic kinetics, cofactor oxidation at 340 nm, variant LP-7; format: biochemical; conditions: role: cofactor; for Km / kcat / kcat/Km: apparent, cofactor 0 to 2 mM
T3 construct: variant LP-7
T3 sequence (A0A0U3FIG2 1-450 I158S/D177W/V240L): B1 chain with I158S, D177W, V240L
Experimental: as §1, §2, §3

[4] = molecular target: T4, Lactobacillus pentosus NADH oxidase (Lp Nox) variant LP-3-EP (I158S-D177W-G178E-V240L-P362H-V395L), SEQ ID NO:7 (Lactiplantibacillus pentosus, UniProt A0A0U3FIG2, D177W/G178E/I158S/P362H/V240L/V395L); assay: Lp Nox enzymatic kinetics, cofactor oxidation at 340 nm, variant LP-3-EP; format: biochemical; conditions: for kcat/Km: estimated based on kinetics under lower cofactor concentrations before inhibition was observed; for inhibition of LP 3-EP activity by the cofactor: role: inhibitor (cofactor inhibition), above 1 mM NADH or NADPH, fits poorly with the substrate inhibition rate equation
T4 construct: variant LP-3-EP
T4 sequence (A0A0U3FIG2 1-450 I158S/D177W/G178E/V240L/P362H/V395L): B1 chain with I158S, D177W, G178E, V240L, P362H, V395L
Experimental: as §1, §2, §3

[5] = molecular target: T1, Lactobacillus pentosus NADH oxidase (Lp Nox), wild type, SEQ ID NO:1; assay: Lp Nox enzymatic kinetics, cofactor oxidation at 340 nm, wild type; format: biochemical; conditions: role: cofactor, 50 mM Tris-HCl pH 7.0, 37 °C
Experimental: as §1
NMNH generation. NMNH generation was performed in 20 mL reaction volumes in a 50 ml conical tube containing 200 mM Tris-Cl at pH 8.0, 100 mM sodium chloride, 3 mM potassium chloride, 200 mM glucose, and 20 m MNMN^+. The reaction was initiating by spiking 500 ng of purified Bacillus subtilis glucose dehydrogenase I195R8. The reaction was incubated at 30 °C until reaction progression stopped, approximately 6 h. Reaction progression was monitored by observing the increase in light absorption at 340 nm, corresponding to the reduction of NMN^+ to NMNH. Then, the solution was filtered through a 15 kD cutoff filter to remove the protein. […] The elution step was repeated until no NMNH remained in the flow through, as monitored by light absorption at 340 nm. […]
(§4) Lp Nox Enzymatic Assays and Kinetic study with NMNH, NAD(P) H. The Lp Nox activity (see FIG. 4A) was determined by the change in light absorption at 340 nm at 37 °C in 50 mM Tris-Cl buffer pH 7.0. […] The absorbance change at 340 nm for NAD(P) H and NMNH was detected using a SpectraMax M3 microplate reader. […] Cofactor concentration over 2 mM could not be measured accurately on M3 spectrometer due to detector absorbance saturation at 340 nm.

[6] = substrate: NC(=O)C1=CN([C@@H]2O[C@H](COP(=O)(O)OP(=O)(O)OC[C@H]3O[C@@H](n4cnc5c(N)ncnc54)[C@H](O)[C@@H]3O)[C@@H](O)[C@H]2O)C=CC1; assay: as above; format: biochemical, Lactobacillus pentosus; conditions: other: role: cofactor, apparent, 50 mM Tris-HCl pH 7.0, 37 °C, cofactor 0 to 2 mM
Experimental: as §1, with “Purified protein was stored in aliquots with 20% (v/v) glycerol at −80 °C.” left out
NMNH generation. […] Reaction progression was monitored by observing the increase in light absorption at 340 nm, corresponding to the reduction of NMN^+ to NMNH. […] The elution step was repeated until no NMNH remained in the flow through, as monitored by light absorption at 340 nm. […]
as §4

[7] = role: cofactor, 50 mM Tris-HCl pH 7.0, 37 °C
[8] = enzyme could not be saturated with the cofactor concentrations tested

| Molecule | catalytic efficiencies (in words) [1] | Km [2] [µM] | kcat [2] [s⁻¹] | kcat/Km [2] [M⁻¹ s⁻¹] | Km ([3]; 50 mM Tris-HCl pH 7.0, 37 °C) [µM] | kcat ([3]; 50 mM Tris-HCl pH 7.0, 37 °C) [s⁻¹] | kcat/Km ([3]; 50 mM Tris-HCl pH 7.0, 37 °C) [M⁻¹ s⁻¹] | kcat/Km [4, 7] | inhibition of LP 3-EP activity by the cofactor [4] | other results |
| --- | --- | --- | --- | --- | --- | --- | --- | --- | --- | --- |
| NC(=O)C1=CN(Cc2ccccc2)C=CC1 [BNAH, 1-Benzyl-1,4-dihydronicotinamide] | low catalytic efficiencies | – | – | – | – | – | – | – | – | – |
| CN1C=CCC(C(N)=O)=C1 [MNAH, N-methyl-1,4-dihydronicotinamide] | low catalytic efficiencies | – | – | – | – | – | – | – | – | – |
| NC(=O)C1=CN([C@@H]2O[C@H](COP(=O)(O)OP(=O)(O)OC[C@H]3O[C@@H](n4cnc5c(N)ncnc54)[C@H](O)[C@@H]3O)[C@@H](O)[C@H]2O)C=CC1 [NADH, nicotinamide adenine dinucleotide] | – | 1900 ± 40 | 31 ± 1 | 17000 ± 1000 | 1700 ± 200 | 47 ± 4 | 28000 ± 1000 | 49 ± 2.0^c mM^−1s^−1 | strongly inhibited | – |
| NC(=O)C1=CN([C@@H]2O[C@H](COP(=O)(O)OP(=O)(O)OC[C@H]3O[C@@H](n4cnc5c(N)ncnc54)[C@H](OP(=O)(O)O)[C@@H]3O)[C@@H](O)[C@H]2O)C=CC1 [NADPH, nicotinamide adenine dinucleotide phosphate] | – | 1100 ± 100 | 28 ± 1 | 26000 ± 1000 | 890 ± 40 | 27 ± 2 | 31000 ± 1000 | 51 ± 3^c mM^−1s^−1 | strongly inhibited | Km ([5]; apparent, cofactor 0 to 2 mM): 1900 ± 200 µM; kcat ([5]; apparent, cofactor 0 to 2 mM): 18 ± 2 s⁻¹; kcat/Km ([5]; apparent, cofactor 0 to 2 mM): 9300 ± 200 M⁻¹ s⁻¹ |
| NC(=O)C1=CN([C@@H]2O[C@H](COP(=O)(O)O)[C@@H](O)[C@H]2O)C=CC1 [NMNH, nicotinamide mononucleotide] | – | – | – | – | – | – | – | – | – | kcat/Km (catalytic efficiency for NMNH) [2, 8]: 10000 ± 1000 M⁻¹ s⁻¹; kcat/Km (catalytic efficiency for NMNH) ([3]; 50 mM Tris-HCl pH 7.0, 37 °C, enzyme could not be saturated with the cofactor concentrations tested): 18000 ± 1000 M⁻¹ s⁻¹; increase of catalytic efficiency for NMNH from the wild type ([3]; ratio of kcat/Km to wild type): ~ 8 fold; kcat/Km (catalytic efficiency for NMNH) [5, 8]: 2300 ± 100 M⁻¹ s⁻¹; kcat/Km (catalytic efficiency for NMNH) ([4]; role: cofactor, 50 mM Tris-HCl pH 7.0, 37 °C, enzyme could not be saturated with the cofactor concentrations tested): 23000 ± 1000 M⁻¹ s⁻¹; inhibition effect when NMNH was utilized ([4]; role: cofactor, NMNH as cofactor): not seen; gain of catalytic efficiency for NMNH from LP 3 ([4]; role: cofactor, ratio of kcat/Km to LP 3): ~ 2.5 fold; increase of catalytic efficiency for NMNH from the wild type ([4]; role: cofactor, ratio of kcat/Km to wild type): ~ 10 fold |
| B1 | – | – | – | – | – | – | – | – | – | Km [6]: 24 ± 5 µM; kcat [6]: 21 ± 1 s⁻¹; kcat/Km [6]: 844000 ± 4000 M⁻¹ s⁻¹ |
